Patent publication US7932290B2, “Method for the treatment of metabolic disorders” (Wellstat Biologics Corporation, priority 2003, dated 2011)

Tests used:
[1] = target: T1, Mouse PPARγ LBD fusion protein (Mus musculus, UniProt P37238); assay: Transcription activation potential, GAL4 luciferase reporter in Hepa1.6 cells; assay type: cell-based
T1 sequence (P37238 238-503): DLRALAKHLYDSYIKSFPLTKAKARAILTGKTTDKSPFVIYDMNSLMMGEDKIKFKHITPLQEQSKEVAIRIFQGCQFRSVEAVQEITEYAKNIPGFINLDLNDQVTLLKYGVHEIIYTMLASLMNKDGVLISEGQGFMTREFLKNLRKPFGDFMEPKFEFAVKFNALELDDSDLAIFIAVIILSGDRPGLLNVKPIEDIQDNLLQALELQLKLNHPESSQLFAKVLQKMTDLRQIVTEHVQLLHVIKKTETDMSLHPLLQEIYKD
Procedure: Cells were seeded in 24 well plates the day prior to transfection at 5×10^4−2×10^5 cells/well, depending upon cell type. Cells were transfected using Lipofectamine 2000 reagent from Invitrogen. A total of 0.8 μg DNA/well was added to 50 μL of Optimem Reduced Serum media (serum free; Gibco). Lipofectamine 2000 was added (2.5 μL/well) to another tube containing 50 μL of Optimem media. Plasmid DNA was added at a ratio of 4:3 (reporter:activator); where appropriate, salmon sperm DNA was substituted for activator expressing plasmid. […] DNA constructs containing the mouse PPARα or PPARγ LBD fused to the GAL4 DNA binding domain were also used. The two solutions were incubated at room temperature for 5 min, and then combined. The combined solution was incubated at room temperature for approximately 30 min. Cells were washed once with PBS, and 100 μL of transfection mix added to each well. Plates were incubated at 37° C. in a 5% CO2 incubator for 4.5 hr, followed by aspiration of the transfection mix, with plates refed using EMEM complete media (supplemented with 10% FBS, 1× Glutamine). 24 hr post-transfection, plates were treated with the appropriate compounds in EMEM complete media, followed by washing once with PBS and addition of 100 μL 1× reporter lysis buffer/well (Promega) 24 hr after treatment. Plates went through one freeze/thaw cycle prior to analysis. Approximately 10 μL of lysate was added to 100 μL of firefly luciferase substrate, mixed by pipetting, and analyzed on a luminometer for 10 s using the integration function (relative luciferase units/RLU) or on a Microbeta Trilux (luciferase counts per second/LCPS). Each treatment was performed in triplicate, and in multiple, separate experiments.

db/db mice [2] = assay: Antidiabetic effects in db/db mice, Example C (17 days daily oral dosing); assay type: in vivo, mouse
Text: C57BL/Ksola (db/db) mice have a defect in leptin signaling, leading to hyperphagia, obesity and diabetes. Moreover, unlike ob/ob mice on a C57BL/6J background, db/db mice on a C57BLKS background undergo failure of their insulin-producing pancreatic islet cells, resulting in progression from hyperinsulinemia (associated with peripheral insulin resistance) to hypoinsulinemic diabetes.
(§1) Male obese (db/db homozygote) C57BL/Ksola mice approximately 8 weeks of age, were obtained from Jackson Labs (Bar Harbor, Me.) and sorted into groups of 7 animals each animals such that the body weights (40-45 g) and serum glucose levels (≧300 mg/dl in fed state) were similar between groups. A minimum of 7 days was allowed for adaptation after arrival. All animals were maintained under controlled temperature (23° C.), relative humidity (50±5%) and light (7:00-19:00), and allowed free access to standard chow (Formulab Diet 5008, Quality Lab Products, Elkridge, Md.) and water.
Treatment cohorts were given daily oral doses of vehicle (1% hydroxypropylmethylcellulose), Compounds BI, CF, CG, or phenylacetate for 17 days. At the end of the treatment period, blood samples were collected and serum glucose and triglycerides were measured.

db/db mice [3] = assay: Antidiabetic effects in db/db mice, Example B (2 weeks daily oral dosing); assay type: in vivo, mouse
Text: db/db mice have a defect in leptin signaling, leading to hyperphagia, obesity and diabetes. Moreover, unlike ob/ob mice on a C57BL/6J background, db/db mice on a C57BL/KS background undergo failure of their insulin-producing pancreatic islet cells, resulting in progression from hyperinsulinemia (associated with peripheral insulin resistance) to hypoinsulinemic diabetes.
as §1, with “randomly assigned” for “sorted”, “5-7” for “7 animals each”, “(50-55” for “(40-45”, “groups; male lean (db/+heterozygote) mice served as cohort controls.” for “groups.”
Treatment cohorts were given daily oral doses of Vehicle (1% hydroxypropylmethylcellulose), Compounds BI, CE, BT, BV, […] or Fenofibrate for 2 weeks. At the end of the treatment period 100 μl of venous blood was withdrawn in a heparinized capillary tube from the retro-orbital sinus of db/db mice for serum chemistry analysis.

[4] = test system: male ob/ob mouse model of Type II diabetes; assay: Antidiabetic effects in ob/ob mice (serum chemistry after 2 weeks daily oral dosing); assay type: in vivo; set-up: key to Glucose ± SEM: serum glucose in mg/dl; Triglycerides ± SEM / Free Fatty Acids ± SEM: unit not given here; details: for Glucose / Glucose (% of Control): 2 weeks; for Glucose ± SEM: Table 15; for reduction in blood glucose (in words) / reduction in free fatty acids (in words) / reduction in triglycerides (in words): 2 weeks daily oral dosing
Procedure: Obese (ob/ob) mice have a defect in the protein leptin, a regulator of appetite and fuel metabolism, leading to hyperphagia, obesity and diabetes.
Male obese (ob/ob homozygote) C57BL/6J mice, approximately 8 weeks of age, were obtained from Jackson Labs (Bar Harbor, Me.) and randomly assigned into groups of 5 animals each such that the body weights (45-50 g) and serum glucose levels (≧300 mg/dl in fed state) were similar between groups. A minimum of 7 days was allowed for adaptation after arrival. All animals were maintained under controlled temperature (23° C.), relative humidity (50±5%) and light (7:00-19:00), and allowed free access to standard chow (Formulab Diet 5020 Quality Lab Products, Elkridge, Md.) and water.
Treatment cohorts were given daily oral doses of vehicle (1% hydroxypropyl-methylcellulose), Compounds BI, CF, CA, CB, CC, or CD for 2 weeks. At the end of the treatment period 100 μl of venous blood was withdrawn in a heparinized capillary tube from the retro-orbital sinus of ob/ob mice for serum chemistry analysis.

[5] = serum, 2 weeks daily oral, dose not given in Table 17 (see Table 16)

Cc1cccc(C)c1COc1cccc(C(=O)CCC(=O)O)c1 [Compound BI, 4-(3-(2,6-Dimethylbenzyloxy)phenyl)-4-oxobutyric acid]
transcription activation potential (luciferase) ± standard deviation ([1]; 1 μM): 210 ± 51 RLU | transcription activation potential (luciferase) ± standard deviation ([1]; 3 μM): 256 ± 33 RLU | transcription activation potential (luciferase) ± standard deviation ([1]; 5 μM): 254 ± 81 RLU | transcription activation potential (luciferase) ± standard deviation ([1]; 7 μM): 265 ± 61 RLU | transcription activation potential (luciferase) ± standard deviation ([1]; 10 μM): 355 ± 53 RLU | transcription activation potential (luciferase) ± standard deviation ([1]; 30 μM): 441 ± 203 RLU | transcription activation potential (luciferase) ± standard deviation ([1]; 100 μM): 820 ± 353 RLU | Glucose mg/dL (±SEM) (db/db mice [2]; 100 mg/kg daily oral): 472 ± 54 mg/dL | Triglycerides (db/db mice [2]; 100 mg/kg daily oral): 116 ± 4 mg/dL | Glucose mg/dL (±SEM) (db/db mice [2]; 150 mg/kg daily oral): 348 ± 67 mg/dL | Triglycerides (db/db mice [2]; 150 mg/kg daily oral): 90 ± 6 mg/dL | Glucose (% of Control) (db/db mice [3]; 100 mg/kg daily oral, 2 weeks): 50 ± 6 % of Control | Glucose (db/db mice [3]; nonfasting, 100 mg/kg daily oral, 2 weeks): 347.0 ± 43.1 mg/dL | Free Fatty Acids ± SEM (db/db mice [3]; [5]): 1997.2 ± 196.4 µM | Triglycerides ± SEM (db/db mice [3]; [5]): 77.8 ± 5.3 mg/dL | Free Fatty Acids ± SEM ([4]; 30 mg/kg): 1272.8 ± 32.5 | Triglycerides ± SEM ([4]; 30 mg/kg): 66.6 ± 3.6 | Glucose ([4]; 30 mg/kg daily oral): 301.4 ± 29.0 mg/dL | Glucose (% of Control) ([4]; 30 mg/kg daily oral): 71.0 ± 7.0 % of Control | Glucose ± SEM ([4]; 30 mg/kg): 301.4 ± 29.0 | Glucose ([4]; 60 mg/kg daily oral): 248.8 ± 20.0 mg/dL | Glucose (% of Control) ([4]; 60 mg/kg daily oral): 59.0 ± 5.0 % of Control | Free Fatty Acids ± SEM ([4]; 100 mg/kg): 1245.4 ± 20.0 | Triglycerides ± SEM ([4]; 100 mg/kg): 55.0 ± 3.4 | Glucose ([4]; 100 mg/kg daily oral): 196.3 ± 6.0 mg/dL | Glucose (% of Control) ([4]; 100 mg/kg daily oral): 46.0 ± 1.0 % of Control | reduction in blood glucose (in words) ([4]; 100 mg/kg): significant reduction | reduction in free fatty acids (in words) ([4]; 100 mg/kg): significant reduction | reduction in triglycerides (in words) ([4]; 100 mg/kg): significant reduction | Glucose ± SEM ([4]; 100 mg/kg): 196.3 ± 6.0

Cc1cccc(C)c1COc1cccc(CC(=O)O)c1 [Compound CF, 3-(2,6-Dimethylbenzyloxy)phenylacetic acid]
transcription activation potential (luciferase) ± standard deviation ([1]; 1 μM): 361 ± 138 RLU | transcription activation potential (luciferase) ± standard deviation ([1]; 3 μM): 602 ± 144 RLU | transcription activation potential (luciferase) ± standard deviation ([1]; 5 μM): 710 ± 87 RLU | transcription activation potential (luciferase) ± standard deviation ([1]; 7 μM): 786 ± 418 RLU | transcription activation potential (luciferase) ± standard deviation ([1]; 10 μM): 1140 ± 111 RLU | transcription activation potential (luciferase) ± standard deviation ([1]; 30 μM): 1253 ± 554 RLU | transcription activation potential (luciferase) ± standard deviation ([1]; 100 μM): 1534 ± 608 RLU | Glucose mg/dL (±SEM) (db/db mice [2]; 30 mg/kg daily oral): 586 ± 31 mg/dL | Triglycerides (db/db mice [2]; 30 mg/kg daily oral): 156 ± 20 mg/dL | Glucose mg/dL (±SEM) (db/db mice [2]; 60 mg/kg daily oral): 604 ± 36 mg/dL | Triglycerides (db/db mice [2]; 60 mg/kg daily oral): 120 ± 13 mg/dL | Glucose mg/dL (±SEM) (db/db mice [2]; 100 mg/kg daily oral): 391 ± 61 mg/dL | Triglycerides (db/db mice [2]; 100 mg/kg daily oral): 92 ± 6 mg/dL | Glucose ([4]; 60 mg/kg daily oral): 161.2 ± 14.0 mg/dL | Glucose (% of Control) ([4]; 60 mg/kg daily oral): 38.0 ± 3.0 % of Control | reduction in blood glucose (in words) ([4]; 60 mg/kg): significant reduction | reduction in free fatty acids (in words) ([4]; 60 mg/kg): significant reduction | reduction in triglycerides (in words) ([4]; 60 mg/kg): significant reduction

Cc1cccc(C)c1COc1cccc(C(=O)O)c1 [Compound CG, 3-(2,6-Dimethylbenzyloxy)benzoic acid]
Glucose mg/dL (±SEM) (db/db mice [2]; 100 mg/kg daily oral): 753 ± 24 mg/dL | Triglycerides (db/db mice [2]; 100 mg/kg daily oral): 166 ± 14 mg/dL
